From patent US10183011B2, “Anti-depression compounds” (Board of Regents of the University of Texas System, priority 2009, dated 2019)

Legend:
[1] = system: aged Fisher 344 rats; experiment: Aged rats: hippocampal neurogenesis, Morris water maze, apoptosis, body weight; format: in vivo, rat (Fisher 344)
Protocol: FIG. 20A, FIG. 20B, FIG. 20C, FIG. 20D and FIG. 20E: Effect of Example 45 Compound in aged rats. (FIG. 20A) Example 45 Compound (20 mg/kg/d, i.p.) and BrdU (50 mg/kg, i.p.) were administered daily for 7 days to 12-18 month old Fisher 344 rats (n=4 in each group). P7C3 promoted neural precursor cell proliferation by roughly 5 fold compared to vehicle. (*p<0.001, Students t test). […] These micrographs were taken at the same magnification. Scale bar=[…]. Data are expressed as mean+/−SEM. […] Data are expressed as mean+/−SEM. […] Data are expressed as mean+/−SEM.
Many more of the BrdU-labeled cells were noted to have migrated into the granular layer in Example 45 Compound-treated rats in comparison to vehicle treated animals, consistent with their functional incorporation into the dentate gyrus as properly wired neurons. The scale bar represents […]. […] The scale bar represents […]. […] In all graphs data are expressed as mean±SEM.
It was first evaluated whether Example 45 Compound would enhance hippocampal neurogenesis in aged rats as it does in adult mice. Rats were injected with a daily, IP dose of either […] of Example 45 Compound or vehicle, coinjected with a daily dose of BrdU, and then sacrificed after 7 days for immunohistochemistry. […] Having observed proneurogenic efficacy of Example 45 Compound in this short term assay, it was then tested whether prolonged administration of Example 45 Compound might ameliorate age-related decline in cognition by subjecting 18-month-old rats to daily administration of either […] of Example 45 Compound or vehicle only for 2 months. Animals of both groups were further subjected to weekly IP administration of BrdU (50 mg/kg) for later immunohistochemical measurements of hippocampal neurogenesis. As a control, both Example 45 Compound- and vehicle-treated groups were confirmed to display equal ability to physically participate in the task, and learn the task, as shown by decreased latency times to find the hidden platform over the 5 day training period, both before and after 2 months of treatment (FIG. 20B). Moreover, neither swim speed (FIG. 20C) nor locomotor activity (FIG. 20D) varied with age or treatment paradigm.
After 2 months of compound or vehicle administration, cognitive ability was assessed blind to treatment group by removing the goal platform. Animals of the Example 45 Compound-treated group retained a statistically significant improvement in ability to navigate to the region of the missing platform, as evidenced by performance in the probe test.
After behavioral testing, animals were sacrificed for immunohistochemical detection of BrdU and CCSP3. […] Next it was tested whether Example 45 Compound-mediated preservation of body weight in aged rats operates via central or peripheral modes of action.

[2] = system: Ghsr-null and wild-type mice; experiment: Social interaction test after CSDS; format: in vivo, mouse
Source text: FIG. 41. Effects of P7C3 on CSDS-induced depressive-like behavior, as measured by the social interaction test. (a, b) Times spent in the interaction zone with target present for wild-type (a) and Ghsr-null (b) mice. (c, d) Times spent in the corners by wild-type (c) and Ghsr-null (d) mice. Group sizes indicated. *P<0.05, **P<0.01, as compared to respective vehicle-treated control group.
Next, P7C3 and two chemical analogs were employed to investigate whether P7C3-mediated preservation of ventral DG neurogenesis during CSDS might correlate with an antidepressant-like behavioral effect. […] Conversely, the analog P7C3-S184 (Example 178) replaces bromines on the carbazole moiety with chlorines and the aniline moiety with a naphthyl amine, leaving the analog completely devoid of neuroprotective activity.
CSDS was performed similar to methods used previously in the lab (J. C. Chuang et al., Ghrelin mediates stress-induced food-reward behavior in mice. J Clin Invest 121, 2684 (2011)). Test mice were housed individually in large cages paired with a CD1 aggressor mouse, separated by a plastic divider with holes so as to allow sensory contact. For 5 min a day, the plastic divider was removed, exposing test mice to the CD1 mouse. After 5 min of exposure to the CD1 mouse, test mice were again separated and paired with a new CD1 mouse for the remainder of the 24 hours. This process was repeated for 10 days. Following the 5 min sensory contact on the 10th day, mice were separated and singly housed prior to social interaction test. Control mice were housed in equivalent cages with members of the same strain and handled daily. The social interaction test consists of placing mice in an arena with a small cage at one end. The movements of test mice were tracked for 2.5 min in the absence of another mouse, followed by 2.5 min in the presence of a novel CD1 mouse, or the “target”. Ethovision 3.0 software (Noldus, Leesburg, Va.) measured the duration spent in the interaction zone or in the corners. As done previously, data is presented as time spent in the interaction zone when the target is present or time spent in the corners when the target is present (J. C. Chuang et al., Ghrelin mediates stress-induced food-reward behavior in mice. J Clin Invest 121, 2684 (2011)).

SMILES | apoptotic cells in the dentate gyrus ([1]; after 2 months of treatment) | level of BrdU-positive neurons in the dentate gyrus versus vehicle ([1]; after 2 months of treatment) [fold] | postfasting blood glucose levels ([1]; aged rats) | body weight with aging ([1]; aged rats, 2 months of treatment) | increase in BrdU labeling in the dentate gyrus relative to vehicle ([1]; daily IP for 7 days, aged rats) [%] | crossings of the location previously containing the platform ([1]; probe test after 2 months of treatment) | percentage of time in the general goal area (quadrant previously containing the platform) ([1]; probe test after 2 months of treatment, vehicle 28.1%±2.6%) | depression-like behavior, social interaction test ([2]; CSDS-exposed Ghsr-null mice) | depression-like behavior, social interaction test ([2]; CSDS-exposed wild-type mice) | social interaction test performance ([2]; non-CSDS-exposed control mice) | neural precursor cell proliferation (BrdU) compared to vehicle ([1]; daily i.p. for 7 days, 12-18 month old Fisher 344 rats)
OC(CNc1ccccc1)Cn1c2ccc(Br)cc2c2cc(Br)ccc21 (stereo not shown) [Example 45 Compound] | statistically significant reduction in the number of CCSP3-positive cells | 3 | had no effect on postfasting blood glucose levels | helped rats maintain stable body weight with aging | 500 | significantly more often than vehicle-treated rats | 35.5%±2.2% |  |  |  | 
OC(CNc1ccccc1)Cn1c2ccc(Br)cc2c2cc(Br)ccc21 (stereo not shown) [Example P7C3] |  |  |  |  |  |  |  | showed antidepressant efficacy | had no significant effect on depression-like behavior | Neither P7C3 nor the two tested analogs influenced social interaction test performance | roughly 5 fold
OC(CNc1cccc2ccccc12)Cn1c2ccc(Cl)cc2c2cc(Cl)ccc21 (stereo not shown) [Example P7C3-S184] |  |  |  |  |  |  |  | had no effect on stress-induced depressive-like behavior in either genotype | had no effect on stress-induced depressive-like behavior in either genotype |  | 
